One data set relates to influenza virus. The format is cell-based. The following applies: MDCK cells, screening concentration 50 μM, 36 h.
A further data set relates to MDCK cell. As to the kind of experiment: Cytotoxicity in the anti influenza virus assay (MDCK cells). In kind it is cell-based. As to conditions: screening concentration 50 μM. The protocol: CellTiter-Glo® Luminescent Cell Viability Assay
Screening concentration: 50 μM
MDCK cells were laid with 96 well plates (1×10^4/well) and incubated in 37° C. and 5% CO2 incubators for 24 h, then the medicine was added.
After dosing, the 96 well plate was put in the 37° C., 5% CO2 incubator for 36 h, and detected with the microplate reader.

The next data set relates to ICR mice. Briefly: Oral glucose tolerance (OGTT) pharmacodynamic experiment in ICR mice. In kind it is in vivo. As to conditions: for hypoglycemic effect: OGTT; for hypoglycemic activity: oral glucose tolerance, glucose 5 g/kg, compound given 0.5 h before sugar. The protocol:
1. Pharmacodynamic Experiment of Compound on Oral Glucose Tolerance in ICR Mice
After the animals arrived at WuXi AppTec facilities, they were kept in the animal feeding room with strictly controlled environmental conditions. The temperature was kept at 20-24° C. and the humidity was kept at 30-70% in the feeding room. The temperature and humidity of the feeding room were monitored in real time through the temperature and humidity meter, and the temperature and humidity were recorded twice a day (once in the morning and once in the afternoon). The lighting in the animal feeding room was controlled by an electronic timing lighting system, which was turned on for 12 hours every day and turned off for 12 hours (on at 7:00 a.m. and off at 19:00 p.m.). During the experiment, the animals were raised in a single cage and toys were provided for mice in each cage. During the experiment, the animals freely took food (growth/reproduction feed for rats and mice) and water.
After the animals arrived, they can adapt to the environment for 1-2 weeks before conducting the experiment.
1) Preparation of liquid medicine: each compound was prepared on the first day of the experiment, and then stored in a 4° C. refrigerator for use on the next day.
2) Administration: After grouping, animals in each group were administered 0.5 hours before sugar administration.
3) Oral glucose tolerance experiment: sugar was administrated to the animals by gavage 0.5 hour after the end of the animal administration, and the time of sugar administration was recorded as 0 min. The oral dose of glucose was 5 g/kg, 10 ml/kg. The blood glucose of animals was detected before administration, before sugar administration, and 15, 30, 60, 90, and 120 minutes after sugar administration. The blood glucose was detected with a blood glucose meter and the corresponding blood glucose test paper.

The subject of data set [1] is intestinal endocrine cell line STC-1 cell. As to the kind of experiment: In vitro GLP-1 secretion in STC-1 cells (HTRF kit). As to conditions: for EC50: 1 h treatment, read-out: EC50 of promoting GLP-1 secretion in vitro. In kind it is cell-based. The protocol:
Cell line: intestinal endocrine cell line STC-1 cell
Positive control: INT777 (TGR5 receptor agonist)
Others: KRBH buffer, BSA, DPP4 inhibitor
STC-1 cells were seeded with a certain density. After the cells adhered to the wall overnight, they were starved with KRBH buffer, while BSA was used to maintain nutrition, and degradation of GLP-1 was reduced with DPP4 inhibitors. After 1 h, they were replaced with glucose free or glucose containing KRBH buffer to stimulate GLP-1 secretion. At the same time, compounds of certain concentrations were added. After 1 h of treatment, supernatant was collected and tested for GLP-1 concentration with HTRF kit. The secretion of LDH was also detected to indicate the toxicity of the compounds.

For a further data set, the system named is SARS Cov-2 virus. Briefly: SARS Cov-2 virus replication inhibition in Vero E6 cells (viral copy number by qPCR). In kind it is cell-based. The following applies: Severe acute respiratory syndrome coronavirus 2, Vero C1008, MOI 0.05, 24 hours. (In qPCR the cycle at which signal appears reflects the starting amount.)
The next data set in a line: PK property in mice. The format is in vivo, ICR (CD-1) mice. As to conditions: PO 25 mg/kg, IV 3 mg/kg. The protocol: Species/strain: ICR (CD-1) mice
Gender/number of rats: male (n=6)
Weight (g): male (20-24 g)
Type of diet: standard rodent diet • freely drink • Fasted for 12 hours before administration and keeping fasting for 2 hours.
Feeding: animal room environment control (target conditions: temperature 18 to 29° C., relative humidity 30 to 70%. Temperature and relative humidity were monitored every day. The electronic time control lighting system was used to provide 12 hours of light/12 hours of dark cycle.

The structures appear in SMILES notation. Entries after “also recorded” stand apart in the source; their conditions may differ.

On to `CC1(C)CC[C@]2(C(=O)O)CC[C@]3(C)C(=CCC4[C@@]5(C)CC[C@H]([C@@H](O)[C@@H]6OC(CO)[C@@H](O)C(O)C6O)C(C)(C)C5CC[C@]43C)C2C1` (stereo partly drawn) [Example A2, (3S,5S,8R,9R,10S,14R,17R,18S)-Oleanolicacid-3-(1′R)-(hydroxyl)methyl-β-D-glucopyranoside], for which, in the data set with influenza virus, the virus inhibition rate entry is given as “same virus inhibition rate”. The cytotoxicity entry in the data set on MDCK cell is given as “low cytotoxicity; also recorded: lower cytotoxicity than that of ribavirin”.
Turning to `CC1(C)CC[C@]2(C(=O)O)CC[C@]3(C)C(=CCC4[C@@]5(C)CC[C@H]([C@@H](O)[C@@H]6OC(C(=O)O)[C@@H](O)C(O)C6O)C(C)(C)C5CC[C@]43C)C2C1` (stereo partly drawn) [Example A25, (3S,5S,8R,9R,10S,14R,17R,18S)-Oleanolic acid-3-(1′R)-(hydroxy)methyl-β-D-glucurouopyranoside], the hypoglycemic effect entry in the data set on ICR mice (25 mg/kg) is “obvious hypoglycemic effect”; in the data set on ICR mice (50 mg/kg), “further enhanced hypoglycemic effect”. In addition, the hypoglycemic activity result in the data set with ICR mice was “good in vivo hypoglycemic effect; also recorded: best hypoglycemic activity”.
For `CC1O[C@@H]([C@H](O)[C@H]2CC[C@@]3(C)C(CC[C@]4(C)C3CC=C3C5CC(C)(C)CC[C@]5(C(=O)O)CC[C@]34C)C2(C)C)C(O)C(O)[C@H]1O` (stereo partly drawn) [Example A43, (3S,5S,8R,9R,10S,14R,17R,18S)-Oleanolic acid-3-(1'S)-(hydroxy)methyl-α-L-rhamnopyranoside], in that order: “obvious hypoglycemic effect”, “further enhanced hypoglycemic effect” and “good in vivo hypoglycemic effect; also recorded: best hypoglycemic activity”.
One may read the EC50 as the concentration needed to bring the measured effect to its halfway point. As to `CC1(C)CC[C@]2(C(=O)O)CC[C@]3(C)C(=CCC4[C@@]5(C)CC[C@@H](C[C@@H]6OC(C(=O)O)[C@@H](O)C(O[C@@H]7OC[C@@H](O)C(O)C7O)C6O)C(C)(C)C5CC[C@]43C)C2C1` (stereo partly drawn) [Example A64, (3R,5S,8R,9R,10S,14R,17R,18S)-Oleanolic acid-3-methyl-β-D-xylopyranosyl(1→3)-β-D-glucurouopyranoside], in data set [1], the “in vitro effect of promoting GLP-1 secretion” value is reported as “good in vitro effect of promoting GLP-1 secretion” and the concentration giving a half-maximal response (EC50) was found to be 7.23 µM.
Take `CC1(C)CC[C@]2(C(=O)OCn3cccn3)CC[C@]3(C)C(=CCC4[C@@]5(C)CC[C@H]([C@@H](O)[C@@H]6OC(C(=O)O)[C@@H](O)C(O)C6O)C(C)(C)C5CC[C@]43C)C2C1` (stereo partly drawn) [Example A104, (3S,5S,8R,9R,10S,14R,17R,18S)-28-O-(Pyrazol-1″′-yl)methyl oleanolic acid-3-(1′R)-(hydroxy)methyl-β-D-glucurouopyranoside]: a half-maximal effect with SARS Cov-2 virus (EC50) was put at 3.6 µM. For the same compound, the PK properties result in “PK property in mice” was “good PK properties”.
In the data set on SARS Cov-2 virus, `CNC(=O)C1O[C@@H]([C@H](O)[C@H]2CC[C@@]3(C)C(CC[C@]4(C)C3CC=C3C5CC(C)(C)CC[C@]5(C(=O)O)CC[C@]34C)C2(C)C)C(O)C(O)[C@@H]1O` (stereo partly drawn) [Example A114, (3S,5S,8R,9R,10S,14R,17R,18S)-Oleanolic acid-3-(1′R)-(hydroxy)methyl-6″-methylamino-β-D-glucurouopyranoside] gave an EC50 of 4.6 µM.
For `CC[C@H]1[C@@H](O)[C@@H]2[C@H](C[C@H](O)[C@]3(C)[C@@H]([C@H](C)C[C@H](C)C(=O)O)CC[C@@H]23)[C@@]2(C)CC[C@@H](O)C[C@@H]12` [INT777, reference compound], the EC50 in data set [1] is 22.8 µM.
